# Source: patent EP4685142A1, “TRIAZINE COMPOUND AND USE THEREOF” (Chengdu Zenitar Biomedical Technology Co., Ltd., priority 2023, dated 2024)
# Like-named read-outs stand apart in the source and are kept apart here.
# Experiments:
# [1] = target: T1, hERG potassium ion channel (Homo sapiens, UniProt Q12809); experiment: Inhibition of hERG potassium ion channel (CHO cells stably expressing hERG, Qpatch)
# Experimental: (§1) Inhibition experiment of compounds on hERG potassium ion channel
# (§2) Cell culture and treatment: CHO cells stably expressing hERG were cultured in cell culture flasks and incubated in a 5% CO2 incubator at 37°C. When a cell density reached 60%-80%, the cell culture medium was aspirated, washed once with PBS, and then digested with Detachin. After digestion, the grown cells were neutralized in the cell culture medium, and then centrifuged, the supernatant was aspirated, the cell culture medium was added again to resuspend the grown cells, and the cell density was adjusted to 2-5×10^6 cells/mL for later use.
# (§3) Compound preparation: the compound stock solution was diluted in 100% DMSO, that is, 10 µL compound stock solution was serially diluted in 20 µL DMSO by 3 folds to obtain six concentrations. Six concentrations of the compound (4 µL for each concentration) were diluted in 396 µL extracellular fluid by 100 folds to obtain six intermediate concentrations. Six intermediate concentrations of the compound (80 µL for each concentration) were diluted in 320 µL extracellular fluid by 5 folds to obtain final concentrations to be tested. […] DMSO in a final test concentration was not more than 0.2%, and DMSO at this concentration had no effect on the hERG potassium channel. The entire dilution process for compound preparation was performed using Bravo instrument.
# (§4) Electrophysiological recording process: the processes of single-celled high-impedance sealing and whole-cell mode formation were all automatically completed by Qpatch instrument, under the whole-cell recording mode, the cells were clamped at -80 mV, before 5-second + 40 mV depolarization stimulus, the cells were given 50-millisecond - 50 mV pre-voltage, followed by repolarization to -50 mV for 5 seconds, and then returning to -80 mV. The voltage stimulus was given every 15 seconds, after 2 minutes of recording, extracellular fluid was recorded for 5 min, and then a drug was administrated, started from a lowest test concentration, each test concentration of the compound was given for 2.5 minutes, after all concentrations were given consecutively, a positive control compound Cisapride (3 µM) was given. At least 3 cells were tested for each concentration (n≥3).
# (§5) Data processing: data analysis and processing were performed using GraphPad Prism 5.0 and Excel software. IC50 values of the compounds were calculated by fitting with the following equation using GraphPad Prism 5 software: Y = Bottom + (Top−Bottom)/(1+10^(∧)((LogIC50−X)*HillSlope)); [formula] where X is the Log value of the test sample concentration, Y is an inhibition percentage at a corresponding concentration, and Bottom and Top are the minimum and maximum inhibition percentages, respectively.
# NLRP3 inflammasome = target: T2, NLRP3 inflammasome (Homo sapiens, UniProt Q96P20); experiment: Inhibitory activity of NLRP3 inflammasome in human monocytes (THP-1 cells, LPS + Nigericin, IL-1β ELISA); type: cell-based
# T2 construct: host or cells: THP-1 cells
# T2 sequence (Q96P20 whole entry): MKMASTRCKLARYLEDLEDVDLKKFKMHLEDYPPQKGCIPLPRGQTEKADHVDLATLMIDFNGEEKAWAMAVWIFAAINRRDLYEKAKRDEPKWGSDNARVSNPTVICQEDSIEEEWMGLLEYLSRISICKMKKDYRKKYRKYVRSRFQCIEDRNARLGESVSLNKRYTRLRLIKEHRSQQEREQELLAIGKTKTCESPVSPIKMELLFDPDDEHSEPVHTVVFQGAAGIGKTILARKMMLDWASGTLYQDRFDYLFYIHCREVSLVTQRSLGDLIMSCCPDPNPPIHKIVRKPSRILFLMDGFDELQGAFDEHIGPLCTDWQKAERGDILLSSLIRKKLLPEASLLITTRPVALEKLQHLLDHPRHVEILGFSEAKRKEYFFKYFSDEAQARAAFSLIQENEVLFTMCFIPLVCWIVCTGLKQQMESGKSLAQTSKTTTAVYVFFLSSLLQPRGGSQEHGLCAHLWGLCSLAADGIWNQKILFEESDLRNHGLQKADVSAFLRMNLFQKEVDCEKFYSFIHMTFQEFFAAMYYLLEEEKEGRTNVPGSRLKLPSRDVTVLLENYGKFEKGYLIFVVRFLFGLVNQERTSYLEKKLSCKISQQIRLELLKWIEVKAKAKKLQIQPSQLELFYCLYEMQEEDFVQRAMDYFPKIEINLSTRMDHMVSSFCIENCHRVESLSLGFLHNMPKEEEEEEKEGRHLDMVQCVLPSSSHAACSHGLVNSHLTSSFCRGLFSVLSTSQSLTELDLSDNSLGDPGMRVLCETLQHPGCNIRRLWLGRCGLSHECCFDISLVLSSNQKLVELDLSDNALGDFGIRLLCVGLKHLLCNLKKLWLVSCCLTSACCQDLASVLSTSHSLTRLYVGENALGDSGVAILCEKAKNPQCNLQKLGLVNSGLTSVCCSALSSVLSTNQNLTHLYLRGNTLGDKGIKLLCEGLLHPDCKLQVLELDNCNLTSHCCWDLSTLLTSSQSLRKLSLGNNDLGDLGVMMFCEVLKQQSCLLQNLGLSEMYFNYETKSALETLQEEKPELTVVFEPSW
# Procedure, shortened: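 THP-1 cells differentiated overnight with 10 µM PMA at 37°C and 5% CO2, then primed 3 h with 1 µg/mL LPS in Opti-MEM. Compound applied for 40 min, followed by 40 min with 10 µM nigericin. IL-1β in supernatant measured by ELISA.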
# [2] = target: T1, hERG potassium ion channel
# Experimental: as §1, §2, §3, §4, §5
# [3] = Pharmacokinetic evaluation in Balb/c mice; type: in vivo; details: mouse, in vivo, 5 mg/kg
# Text: 4. Pharmacokinetic evaluation of compounds in Balb/c mice
# Experimental purpose: to understand pharmacokinetic properties of the compounds.
# Experimental basis: Technical Guidelines for Nonclinical Pharmacokinetic Studies of Chemical Drugs, 2014.
# Experimental protocol: the pharmacokinetic properties of the compounds were investigated via intravenous administration and intragastric administration in Balb/c mice.
# The blood drug concentration was quantitatively analyzed by LC-MS/MS, and pharmacokinetic parameters were calculated, such as peak concentration (Cmax), area under the concentration-time curve (AUC(0-t)), half-life (T1/2), clearance (CL), volume of distribution at steady state (Vdss), and bioavailability (F).
# The results of pharmacokinetic evaluation are shown in Table 5 below: Table 5 Pharmacokinetic test results of compounds in Balb/c mice
# [4] = In vivo brain-to-plasma ratio in mice; details: for Brain / Plasma: male mice, oral 10 mg/kg
# [5] = In vivo distribution of cerebrospinal fluid and plasma; details: intravenous 5 mg/kg, n=1
# Experimental: Evaluation of in vivo distribution of cerebrospinal fluid and plasma after compound administration
# Experimental procedure: the compound was weighed, followed by adding a small amount of DMSO and then adding a sodium chloride solution for injection, to prepare a 5 mg·mL^-1 compound solution for administration. […] Standard curve range: 1-1000 ng·mL^-1.
# [6] = test system: IL-1β in human PBMC cells; experiment: Inhibitory activity on IL-1β in human PBMC cells (LPS + Nigericin, ELISA); type: cell-based; details: human PBMC, LPS 1 µg/mL 3 h, drug 40 min, Nigericin 10 µM 40 min, IL-1β ELISA; read-out: IC50
# Experimental: 2. Determination of inhibitory activity of compounds on IL-1β in human PBMC cells
# Human peripheral blood mononuclear cells (PBMCs) were taken and cultured overnight in RPMI 1640 culture medium containing 10% FBS and antibiotics before stimulation. On the second day, the culture medium was replaced with a serum-reduced culture medium, the grown cells were stimulated for 3 h with LPS at a working concentration of 1 µg/mL, stimulated for 40 min with a drug, and then stimulated for 40 min with Nigericin at a concentration of 10 µM, the cell supernatant was harvested, and the yield of IL-1β was detected by ELISA.
# The experimental results are shown in Table 3: Table 3 Inhibitory effect of compounds on IL-1β in PBMC cells
# LPS-induced mice = experiment: LPS-induced mouse model, survival; type: in vivo, Balb/c mice; details: for 72h Survival rate: 1 h before 10 mg/kg LPS i.p.
# [7] = 50 mg/kg, First cage (6 mice for Compound 3, 5 mice for Compound 4)
# [8] = 50 mg/kg, Second cage (6 mice for Compound 3, 5 mice for Compound 4)
# [9] = male, mouse, brain/plasma, po, 10 mg/kg
# [10] = male, mouse, plasma, po, 10 mg/kg
# T1 sequence (Q12809 whole entry): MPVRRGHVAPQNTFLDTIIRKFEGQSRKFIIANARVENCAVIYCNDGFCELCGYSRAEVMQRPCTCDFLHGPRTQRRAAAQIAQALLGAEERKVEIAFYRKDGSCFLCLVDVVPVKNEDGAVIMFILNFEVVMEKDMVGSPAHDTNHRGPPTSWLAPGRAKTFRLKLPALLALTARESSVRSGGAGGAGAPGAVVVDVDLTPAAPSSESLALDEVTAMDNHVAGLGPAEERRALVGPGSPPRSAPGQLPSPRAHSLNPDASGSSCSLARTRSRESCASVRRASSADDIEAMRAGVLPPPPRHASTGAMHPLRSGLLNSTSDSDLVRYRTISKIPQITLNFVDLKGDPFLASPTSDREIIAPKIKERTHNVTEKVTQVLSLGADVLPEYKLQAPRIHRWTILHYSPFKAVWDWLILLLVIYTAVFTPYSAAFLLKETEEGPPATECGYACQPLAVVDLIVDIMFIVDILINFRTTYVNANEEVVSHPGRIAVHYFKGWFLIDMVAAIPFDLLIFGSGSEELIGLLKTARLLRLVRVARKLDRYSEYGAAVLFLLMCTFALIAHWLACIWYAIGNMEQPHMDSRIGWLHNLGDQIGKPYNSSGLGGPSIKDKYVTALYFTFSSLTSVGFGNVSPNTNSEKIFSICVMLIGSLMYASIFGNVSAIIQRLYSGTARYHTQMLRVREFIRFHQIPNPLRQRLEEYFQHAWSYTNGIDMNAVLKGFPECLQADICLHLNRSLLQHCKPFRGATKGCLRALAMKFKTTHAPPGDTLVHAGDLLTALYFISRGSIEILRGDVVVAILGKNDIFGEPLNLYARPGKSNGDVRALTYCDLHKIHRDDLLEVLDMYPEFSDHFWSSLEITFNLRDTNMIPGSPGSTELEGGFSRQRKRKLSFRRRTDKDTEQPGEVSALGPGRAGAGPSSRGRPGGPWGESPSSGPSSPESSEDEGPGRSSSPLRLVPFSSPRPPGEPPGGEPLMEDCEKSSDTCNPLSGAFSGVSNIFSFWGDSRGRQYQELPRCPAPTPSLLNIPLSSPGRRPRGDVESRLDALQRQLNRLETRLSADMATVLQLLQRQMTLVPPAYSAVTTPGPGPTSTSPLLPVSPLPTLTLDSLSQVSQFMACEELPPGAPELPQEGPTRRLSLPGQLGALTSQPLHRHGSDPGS
smiles,measurement,setting,value
"CCn1c(-c2ccc3sccc3c2O)nnc(N[C@@H]2CCCN(C)C2)c1=O [Compound 17, (R)-4-ethyl-3-(4-hydroxybenzo[b]thiophen-5-yl)-6-[(1-methylpiperidin-3-yl)amino]-1,2,4-tria zin-5(4H)-ketone]",20 uM Inhibition ratio,[1],22.83%
same,IC50,NLRP3 inflammasome,3.19 nM
same,inhibitory effects on the hERG potassium ion channel (conclusion in words),[2],"Conclusion: compounds 3, 4, 5, 9, 16, 17, 24, 30, 40, 41, 42, 43, 54 and others have weak inhibitory effects on the hERG potassium ion channel, having weaker inhibitory effect than the reference compound Ref-1."
same,AUC(0-t),"[3]; PO, Balb/c mice, read-out: AUC(0-t)",17.8 µg·h/mL
same,Cmax,"[3]; PO, Balb/c mice, read-out: Cmax",1.85 µg/mL
same,half-life,"[3]; PO, Balb/c mice, read-out: T1/2 (converted)",4.2 h
same,Brain,[4]; 1 h,745 ng/g
same,Plasma,[4]; 1 h,5243 ng/mL
same,Brain,[4]; 6 h,290 ng/g
same,Plasma,[4]; 6 h,1872 ng/mL
same,Kp at 1 h,"[4]; mouse, brain, po, 10 mg/kg",0.14
same,Kp at 6 h,"[4]; mouse, brain, po, 10 mg/kg",0.16
same,Cerebrospinal fluid,[5]; 0.25h,47 ng/g
same,Plasma,[5]; 0.25h,713 ng/mL
same,Cerebrospinal fluid,[5]; 2h,25 ng/g
same,Plasma,[5]; 2h,590 ng/mL
"CC(C)(O)c1coc(S(=O)(=O)NC(=O)Nc2c3c(cc4c2CCC4)CCC3)c1 [MCC950, reference compound]",IC50,[6],7.81 nM
same,72h Survival rate,LPS-induced mice; 25 mg/kg oral,60%
same,survival status of mice (mice alive) 12h,"LPS-induced mice; 25 mg/kg, First cage (5 mice)",5
same,survival status of mice (mice alive) 24h,"LPS-induced mice; 25 mg/kg, First cage (5 mice)",5
same,survival status of mice (mice alive) 36h,"LPS-induced mice; 25 mg/kg, First cage (5 mice)",4
same,survival status of mice (mice alive) 48h,"LPS-induced mice; 25 mg/kg, First cage (5 mice)",4
same,survival status of mice (mice alive) 72h,"LPS-induced mice; 25 mg/kg, First cage (5 mice)",4
same,survival status of mice (mice alive) 12h,"LPS-induced mice; 25 mg/kg, Second cage (5 mice)",5
same,survival status of mice (mice alive) 24h,"LPS-induced mice; 25 mg/kg, Second cage (5 mice)",4
same,survival status of mice (mice alive) 36h,"LPS-induced mice; 25 mg/kg, Second cage (5 mice)",4
same,survival status of mice (mice alive) 48h,"LPS-induced mice; 25 mg/kg, Second cage (5 mice)",2
same,survival status of mice (mice alive) 72h,"LPS-induced mice; 25 mg/kg, Second cage (5 mice)",2
"CN1CCC[C@@H](Nc2nnc(-c3ccc4sccc4c3O)n(C)c2=O)C1 [Compound 4, (R)-3-(4-hydroxybenzo[b]thiophen-5-yl)-4-methyl-6-((1-methylpiperidin-3-yl)amino)-1,2,4-tr iazin-5(4H)-ketone]",IC50,[6],1.42 nM
same,20 uM Inhibition ratio,[1],14.87%
same,IC50,"NLRP3 inflammasome; THP-1 cells, PMA, LPS 1 µg/mL 3 h, drug 40 min, Nigericin 10 µM 40 min, IL-1β ELISA, read-out: IC50",4.21 nM
same,inhibitory effects on the hERG potassium ion channel (conclusion in words),[2]; human,"Conclusion: compounds 3, 4, 5, 9, 16, 17, 24, 30, 40, 41, 42, 43, 54 and others have weak inhibitory effects on the hERG potassium ion channel, having weaker inhibitory effect than the reference compound Ref-1."
same,AUC(0-t),"[3]; male, Balb/c, po",16.9 µg·h/mL
same,Cmax,"[3]; male, Balb/c, po",4.61 µg/mL
same,half-life,"[3]; male, Balb/c, po",3 h
same,72h Survival rate,LPS-induced mice; 25 mg/kg oral,80%
same,survival status of mice (mice alive) 12h,"LPS-induced mice; 25 mg/kg, First cage (5 mice)",5
same,survival status of mice (mice alive) 24h,"LPS-induced mice; 25 mg/kg, First cage (5 mice)",5
same,survival status of mice (mice alive) 36h,"LPS-induced mice; 25 mg/kg, First cage (5 mice)",5
same,survival status of mice (mice alive) 48h,"LPS-induced mice; 25 mg/kg, First cage (5 mice)",5
same,survival status of mice (mice alive) 72h,"LPS-induced mice; 25 mg/kg, First cage (5 mice)",5
same,survival status of mice (mice alive) 12h,"LPS-induced mice; 25 mg/kg, Second cage (5 mice)",5
same,survival status of mice (mice alive) 24h,"LPS-induced mice; 25 mg/kg, Second cage (5 mice)",5
same,survival status of mice (mice alive) 36h,"LPS-induced mice; 25 mg/kg, Second cage (5 mice)",4
same,survival status of mice (mice alive) 48h,"LPS-induced mice; 25 mg/kg, Second cage (5 mice)",4
same,survival status of mice (mice alive) 72h,"LPS-induced mice; 25 mg/kg, Second cage (5 mice)",3
same,72h Survival rate,LPS-induced mice; 50 mg/kg oral,100%
same,survival status of mice (mice alive) 12h,LPS-induced mice; [7],5
same,survival status of mice (mice alive) 24h,LPS-induced mice; [7],5
same,survival status of mice (mice alive) 36h,LPS-induced mice; [7],5
same,survival status of mice (mice alive) 48h,LPS-induced mice; [7],5
same,survival status of mice (mice alive) 72h,LPS-induced mice; [7],5
same,survival status of mice (mice alive) 12h,LPS-induced mice; [8],5
same,survival status of mice (mice alive) 24h,LPS-induced mice; [8],5
same,survival status of mice (mice alive) 36h,LPS-induced mice; [8],5
same,survival status of mice (mice alive) 48h,LPS-induced mice; [8],5
same,survival status of mice (mice alive) 72h,LPS-induced mice; [8],5
same,Brain,[4]; 1 h,1780 ng/g
same,Brain,[4]; 6 h,335 ng/g
same,Kp at 1 h,[4]; [9],0.53
same,Kp at 6 h,[4]; [9],0.25
same,concentration at 1 h,[4]; [10],3.34 µg/mL
same,concentration at 6 h,[4]; [10],1.37 µg/mL
